Data on two molecules can be found in patent US20220170944A1, “MATERIALS AND METHODS FOR IDENTIFYING AND TREATING EOSINOPHILIC DISORDERS” (The Regents of the University of California, priority 2019, published 2022).

The test system of data set [1] is EoE fibroblasts and esophageal epithelial cells. Put plainly: COMP expression in cells treated in vitro with recombinant TGFb1. It counts as cell-based, human. The conditions noted are these: p<0.0001. The method, then:
Primary esophageal fibroblasts from EoE patients were used. The fibroblast were treated in vitro with recombinant TGFb1. […] Biopsies were scored using a standardized histology score. […] COMP expression correlated with fibrosis (r=[…]), basal zone hyperplasia (r=0.59, p<0.0001), and eosinophilia (r=0.54, p<0.0001).

For data set [2] the following is noted: cited from earlier work.

Regarding “TGFb1: recombinant TGFb1, the canonical pro-fibrotic molecule transforming growth factor-beta-1”, the COMP expression induction result in data set [1] is “up to 6000 fold”.
On to `CCc1ccc(CCOc2ccc(CC3SC(=O)NC3=O)cc2)nc1` (centres unmarked) [Pioglitazone, pioglitazone], for which, in data set [2], the “tolerability / drug-related adverse events compared to placebo” value is “no major drug-related adverse events”.
